Results published in ChEMBL document CHEMBL2203048, “Synthesis and biological evaluation of a water-soluble derivative of the potent V-ATPase inhibitor archazolid” (Bioorg Med Chem Lett, 2012).
Active and inactive are the calls of the source. No cut-off for these calls is given here.

Tests used:
[1] = target: V-type proton ATPase subunit C (Manduca sexta) (UniProt Q9U5N1); assay: Inhibition of tobacco hornworm V-ATPase c subunit
[2] = target: V-type proton ATPase subunit C (Manduca sexta) (UniProt Q9U5N1); assay: Binding affinity to tobacco hornworm V-ATPase c subunit in 4:4:1 CDCl3:MeOH-d4:D2O by NMR analysis
[3] = Solubility of the compound in 5:95 MeOH-d4:D2O solution at 0.5 mM by NMR analysis; assay type: physicochemical; details: 500 µM
[4] = Solubility of the compound in 10:90 MeOH-d4:D2O solution at 0.5 mM by NMR analysis; assay type: physicochemical; details: 500 µM
[5] = Solubility in 2 mM LMPC at 0.5 mM by NMR analysis; assay type: physicochemical; details: 500 µM
[6] = Solubility of the compound in 10:90 DMSO-d6:D2O solution at 0.5 mM by NMR analysis; assay type: physicochemical; details: 500 µM
[7] = Solubility of the compound in 42:9:49 EtOH-d6:CNCD3:D2O solution at <0.5 mM by NMR analysis; assay type: physicochemical
[8] = Solubility of the compound in 5:95 EtOH-d6:D2O solution at 0.5 mM by NMR analysis; assay type: physicochemical; details: 500 µM
[9] = Solubility of the compound in 5:95 EtOH-d6:D2O solution at 1 mM by NMR analysis; assay type: physicochemical; details: 1000 µM
[10] = Solubility in 17 mM DHPC at 1 mM by NMR analysis; assay type: physicochemical; details: 1000 µM
[11] = Solubility of the compound in 40:40:1 CDCl3:MeOH-d4:D2O at 1 mM by NMR analysis; assay type: physicochemical; details: 1000 µM
[12] = Solubility of the compound in 50:50 DMSO-d6:D2O solution at 1 mM by NMR analysis; assay type: physicochemical; details: 1000 µM
[13] = Solubility in 3 mM DPC at 0.5 mM by NMR analysis; assay type: physicochemical; details: 500 µM
[14] = Solubility of the compound in 5:95 CNCD3-d6:D2O solution at 1 mM by NMR analysis; assay type: physicochemical; details: 1000 µM
[15] = Solubility in 0.4 mM OG at 0.5 mM by NMR analysis; assay type: physicochemical; details: 500 µM
[16] = Solubility in 4 mM LDAO at 1 mM by NMR analysis; assay type: physicochemical; details: 1000 µM
[17] = Solubility in 50 mM OG at 0.5 mM by NMR analysis; assay type: physicochemical; details: 500 µM

Chain of V-type proton ATPase subunit C (Manduca sexta) (Q9U5N1 whole entry): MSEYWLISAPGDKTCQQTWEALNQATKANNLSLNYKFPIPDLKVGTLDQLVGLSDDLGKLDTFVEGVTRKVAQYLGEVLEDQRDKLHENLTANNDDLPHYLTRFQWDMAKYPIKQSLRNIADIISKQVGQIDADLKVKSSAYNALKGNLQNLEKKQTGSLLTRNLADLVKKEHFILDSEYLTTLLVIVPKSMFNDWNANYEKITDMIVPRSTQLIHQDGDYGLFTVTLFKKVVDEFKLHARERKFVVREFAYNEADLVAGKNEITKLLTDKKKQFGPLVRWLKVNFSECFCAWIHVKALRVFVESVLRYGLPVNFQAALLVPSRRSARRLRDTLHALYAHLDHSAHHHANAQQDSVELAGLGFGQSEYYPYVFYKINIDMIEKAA

| inhibition [1] | SMILES | Activity [2] | solubility [3] | solubility [4] | solubility [5] | solubility [6] | solubility [7] | solubility [8] | solubility [9] | solubility [10] | solubility [11] | solubility [12] | solubility [13] | solubility [14] | solubility [15] | solubility [16] | solubility [17] |
| --- | --- | --- | --- | --- | --- | --- | --- | --- | --- | --- | --- | --- | --- | --- | --- | --- | --- |
| inactive | C=CCOP(=O)(O)CC(=O)O[C@@H]1/C=C/C(C)=C\C(C)=C/[C@H](C)[C@H](OC(=O)CP(=O)(O)OCC=C)/C=C(\C)C/C=C/C(=O)O[C@H](c2csc([C@H](CC(C)C)OC(=O)NC)n2)[C@@H](C)/C=C/C=C(\C)[C@@H](OC)[C@H]1C |  |  |  |  |  |  |  |  |  |  |  |  |  |  |  |  |
|  | CNC(=O)O[C@@H](CC(C)C)c1nc([C@H]2OC(=O)/C(C)=C/C/C(C)=C/[C@@H](O[C@@H]3O[C@H](CO)[C@@H](O)[C@H](O)[C@H]3O)[C@@H](C)\C=C(C)/C=C(C)\C=C\[C@@H](O)[C@H](C)[C@H](OC)/C(C)=C/C=C/[C@@H]2C)cs1 | inactive |  |  |  |  |  |  |  |  |  |  |  |  |  |  |  |
|  | CNC(=O)O[C@@H](CC(C)C)c1nc([C@H]2OC(=O)/C(C)=C/C/C(C)=C/[C@@H](O)[C@@H](C)\C=C(C)/C=C(C)\C=C\[C@@H](O)[C@H](C)[C@H](OC)/C(C)=C/C=C/[C@@H]2C)cs1 [ARCHAZOLID A] | inactive | Insoluble | Insoluble | Insoluble | Insoluble | Insoluble | Insoluble | Insoluble | Insoluble | soluble | Insoluble | Insoluble | Insoluble | Insoluble | Insoluble | Insoluble |
